Usually solubility (kinetic) stands for the concentration staying in solution when a stock, usually in DMSO, is diluted into the medium. As usually defined, the IC50 is the concentration at which inhibition is half-maximal.

The structures appear in SMILES notation. In brackets after ≈: the same amount, converted by molar mass. Several values for one entry are separate records, joined by “and”; a condition that tells them apart may be missing. Equal entries are not always repeated.

In one data set the target is T1, CDK12-DDB1 interaction (Homo sapiens, UniProt Q16531+Q9NYV4).
T1 construct: The kinase domain of CDK12 was fused to the Large BiT (LgBiT); expressed in transfected cells; host or cells: HEK293
T1 sequence (Q9NYV4 727-1020 limits assumed): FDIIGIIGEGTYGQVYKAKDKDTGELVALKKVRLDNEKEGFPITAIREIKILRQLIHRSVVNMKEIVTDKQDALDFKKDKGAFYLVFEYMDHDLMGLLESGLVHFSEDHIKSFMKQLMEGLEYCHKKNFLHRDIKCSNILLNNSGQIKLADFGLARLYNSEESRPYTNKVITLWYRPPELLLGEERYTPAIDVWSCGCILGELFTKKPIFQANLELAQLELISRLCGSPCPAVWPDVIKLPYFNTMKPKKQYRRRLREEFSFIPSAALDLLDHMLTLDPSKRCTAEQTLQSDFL
T1 sequence (Q16531 whole entry, the tested form may be a part): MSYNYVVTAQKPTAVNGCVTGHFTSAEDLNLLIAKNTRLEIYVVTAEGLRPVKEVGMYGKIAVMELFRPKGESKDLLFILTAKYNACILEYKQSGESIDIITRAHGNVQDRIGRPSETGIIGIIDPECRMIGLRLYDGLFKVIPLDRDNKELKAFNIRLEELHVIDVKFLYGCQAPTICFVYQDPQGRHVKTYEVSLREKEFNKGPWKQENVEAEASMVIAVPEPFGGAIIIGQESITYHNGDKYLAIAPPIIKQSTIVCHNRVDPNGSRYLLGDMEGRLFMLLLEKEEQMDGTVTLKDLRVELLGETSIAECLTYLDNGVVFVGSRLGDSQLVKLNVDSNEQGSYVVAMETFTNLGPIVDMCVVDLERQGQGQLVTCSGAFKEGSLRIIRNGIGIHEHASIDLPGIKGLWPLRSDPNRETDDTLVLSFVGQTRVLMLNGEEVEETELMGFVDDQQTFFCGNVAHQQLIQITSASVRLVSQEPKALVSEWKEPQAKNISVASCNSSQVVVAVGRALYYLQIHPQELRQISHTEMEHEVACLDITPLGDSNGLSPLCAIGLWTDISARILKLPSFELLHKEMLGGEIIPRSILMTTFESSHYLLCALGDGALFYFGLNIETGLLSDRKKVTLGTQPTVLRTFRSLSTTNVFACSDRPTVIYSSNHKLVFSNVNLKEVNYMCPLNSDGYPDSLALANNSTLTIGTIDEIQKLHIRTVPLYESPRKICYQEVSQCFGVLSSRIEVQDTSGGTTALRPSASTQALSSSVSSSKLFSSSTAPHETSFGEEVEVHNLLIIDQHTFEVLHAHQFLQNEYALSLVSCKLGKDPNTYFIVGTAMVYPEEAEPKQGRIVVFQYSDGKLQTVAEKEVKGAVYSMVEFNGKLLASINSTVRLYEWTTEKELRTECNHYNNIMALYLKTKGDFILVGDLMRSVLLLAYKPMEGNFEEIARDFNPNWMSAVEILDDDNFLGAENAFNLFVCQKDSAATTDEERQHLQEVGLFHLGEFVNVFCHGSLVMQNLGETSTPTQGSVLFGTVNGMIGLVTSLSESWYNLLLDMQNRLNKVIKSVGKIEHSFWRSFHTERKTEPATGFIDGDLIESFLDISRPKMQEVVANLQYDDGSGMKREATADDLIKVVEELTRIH
T1 sequence (O75909 whole entry partner, the tested form may be a part): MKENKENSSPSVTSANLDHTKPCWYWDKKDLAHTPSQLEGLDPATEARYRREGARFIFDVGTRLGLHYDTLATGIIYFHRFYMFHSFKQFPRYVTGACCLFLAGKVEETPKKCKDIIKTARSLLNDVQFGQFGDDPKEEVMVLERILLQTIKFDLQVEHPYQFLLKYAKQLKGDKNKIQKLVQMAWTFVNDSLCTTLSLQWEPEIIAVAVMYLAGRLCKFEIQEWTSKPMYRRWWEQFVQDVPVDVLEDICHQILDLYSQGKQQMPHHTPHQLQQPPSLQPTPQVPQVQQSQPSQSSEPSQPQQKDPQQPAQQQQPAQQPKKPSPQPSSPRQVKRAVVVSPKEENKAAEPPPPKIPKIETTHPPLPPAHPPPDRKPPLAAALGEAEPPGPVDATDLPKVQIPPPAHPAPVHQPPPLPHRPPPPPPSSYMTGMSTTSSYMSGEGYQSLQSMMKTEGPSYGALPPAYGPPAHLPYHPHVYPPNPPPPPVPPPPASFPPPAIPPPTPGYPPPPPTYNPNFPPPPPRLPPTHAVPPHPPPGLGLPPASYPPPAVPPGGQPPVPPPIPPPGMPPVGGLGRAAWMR
Kind of data set: NanoLuc Binary Technology CDK12-DDB1 interaction in HEK293 cells. Type of data set: cell-based, H. sapiens. Particulars: HEK293, monitored over 1 h. The source says:
Using the NanoBiT PPI MCS starter system vectors, we generated fusion proteins of CDK12 and DDB1 to monitor their interaction in living cells through a structural complementation reporter system for the NanoLuc. The kinase domain of CDK12 was fused to the Large BiT (LgBiT) while DDB1 was fused to the Small Bit (SmBiT), both in N-terminal. The primers used to clone CDK12 and DDB1 in NanoBit vectors by Gibson assembly are as follows: N-LgBiT-CDK12KD-F: […]; N-LgBiT-CDK12KD-STOP-R: […]; N-SmBiT-DDB1-F: […]; N-SmBiT-DDB1-GA-R: […].
Both CDK12-LgBiT and DDB1-SmBiT generated plasmids were then transfected in HEK293 cells using JetPrime transfection reagent according to the manufacturer’s instructions and plated 24 h later in white 384-well plate (20,000 cells /well). After 4 h, 5× D-blue substrate was added to each well, incubated for 5 min at obscurity, prior to addition of compounds of interest at increasing concentrations. Luminescence was monitored for 1 h using the Neo Synergy BioTek plate reader.

Data set [1] in a line: Kinetic solubility measurement (HPLC-UV). The conditions noted are these: aqueous buffer, kinetic from dmso stock, αMEM media, nominal 200 μM, room temperature, triplicate. Type of data set: physicochemical. The protocol: A 40 μL aliquot of a 10 mM DMSO stock solution of S656 was prepared and diluted in αMEM media to achieve a nominal concentration of 200 μM. The samples were incubated with stirring at 1100 rpm for 24 h at room temperature. From the incubation mixture, 20 μL was pipetted, rinsed in acetonitrile (MeCN) for 5 s, then in water for 5 s. Subsequently, 10 μL was discarded, and the remaining 10 μL was transferred to a mixture containing 10 μL of PBS, 980 μL of quenched solution, and 10 μL of DMSO. Analysis was performed using HPLC equipped with a UV-visible detector (HPLC-UV). Chromatography was conducted under reverse-phase conditions with a column temperature of 55 °C on a Waters XSelect HSS T3 column (2.5 μm, 2.1 ×50 mm). The aqueous solvent (solvent A) was ultrapure water with 0.1% formic acid, and the organic eluent (solvent B) was acetonitrile. The injection volume was 4 μL, and the flow rate was set at 0.6 mL/min.

Data set [2] concerns BRCA2, ATR and BLM mRNA expression. Put plainly: qPCR of DDR transcripts in OCI-AML5. Type of data set: cell-based, H. sapiens. The conditions noted are these: OCI-AML5, 4 h; S656 5 μM, THZ531 200 nM; normalized to HPRT, DMSO = 1. The protocol:
RNA was harvested in Trizol (ThermoFisher) and isolated according to manufacturer’s protocol and reverse transcribed using MMLV reverse transcriptase and random primers (ThermoFisher). Quantitative PCR was performed using validated assays designed for the Universal Probe Library (Roche) on the Viia7 (Applied Biosystems). qPCR primer sequences are available in Table EV2. Relative quantity of target is normalized to HPRT and compared to normalized expression of control cells.
On the technique in general: In qPCR the cycle at which signal appears reflects the starting amount.

For the next data set, the system named is CD34+ cord blood cells. Put plainly: Chemical screen / dose response on CD34+ cord blood cells. Type of data set: cell-based, Human. The protocol: Fresh umbilical cord blood units were collected from consenting donors according to ethically approved procedures at St Justine, Maisonneuve-Rosemont (Montréal, QC, Canada) and Charles Le Moyne (Longueuil, QC, Canada, approval reference number AA-HCLM-16-014) Hospitals. Human CD34^+ cells were isolated using the EasySep Human Cord Blood CD34^+ Selection Kit through positive magnetic selection. Chemical screen was performed as described in primary AML with the following modifications: 2000 cord blood cells were seeded, CB media contains StemSpan-ACF supplemented with 100 ng/mL SCF, 100 ng/mL FLT3L, 50 ng/mL TPO, 10 μg/mL LDL, 1× glutamax, gentamicin (50 μg/mL), ciprofloxacin (10 μg/mL), SR1 (500 nmol/L) and UM729 (500 nmol/L).
Dose-response assays in primary AML specimens were performed as in chemical screen (see above) with the exception that compounds were tested in serial dilution (8 dilutions, 1:4, 10 μM down to 0.5 nM). Dose-response assays in OCI-AML5 cell line were conducted similarly with the following modifications: 300 cells per well were seeded in 50 μL of cell line media and cell viability was evaluated after 4 days in culture.

The next data set has as its system OCI-AML5 cells proteome. Put plainly: Whole-proteome mass spectrometry analysis. Type of data set: cell-based, H. sapiens. Particulars: OCI-AML5, 5 hours, 8 μM S656. Here is the method: Whole proteome was performed as previously described (Moison et al, [2024]). We treated 10 million OCI-AML5 cells in triplicate with DMSO or 8 μM S656 for 5 h. Collected cells were washed in PBS and cell pellets lysed in Triton X-100 buffer (10 mM PIPES pH 7.4, 0.5% Triton X-100, 300 mM Sucrose, 100 mM NaCl, 3 mM MgCl2, 0.5 mM EDTA + protease inhibitors). Following MS analysis, the data were processed using PEAKS X Pro (Bioinformatics Solutions, Waterloo, ON) and a Uniprot human database (20366 entries) with trypsin as the enzyme. Differential Enrichment analysis of Proteomics data (DEP) package (Zhang et al, [2018]) in R was used to analyze the data (excluding proteins identified based on a single peptide), including data filtering, normalization, imputation of missing values and statistical testing of differentially expressed proteins.

In data set [3] the test system is cyclin K, CDK12, RNA polymerase II phospho-ser2, MYC, MCL-1 protein levels. Put plainly: Immunoblot analysis of protein levels. The data set is classed as cell-based, H. sapiens. The conditions noted are these: for RNA polymerase II phospho-ser2 level (immunoblot): OCI-AML5, 5 μM for 5 h. Here is the method: Total proteins were extracted using RIPA buffer (20 mM Tris-HCl pH 7.4, 150 mM NaCl, 5 mM MgCl2, 5 mM EGTA, 60 mM β-glycerophosphate, 0.1% NP40, 0.1% Triton X-114, 1 mM DTT) supplemented with protease inhibitors (cOmplete, EDTA-free protease inhibitor tablets), and quantified by the bicinchoninic acid (BCA) method using a BSA standard curve. Proteins were resolved by SDS-PAGE, transferred onto PVDF membrane, blocked with 5% milk and probed with primary (overnight, 4 °C) and secondary (1 h, room temperature) antibodies.
(Immunoblotting shows a protein as a band on a membrane.)

The mark [4] stands for this setting: OCI-AML5, increasing concentrations, 6 h.

With `CN(C)C/C=C/C(=O)Nc1ccc(C(=O)N2CCC[C@@H](Nc3ncc(Cl)c(-c4c[nH]c5ccccc45)n3)C2)cc1` [THZ531], the “CDK12-DDB1 interaction in live cells (NanoLuc luminescence)” value at CDK12-DDB1 interaction is “not detectable”.
With `CN(C)c1ccc(CC(=O)Nc2ncc(SCc3cccnc3)s2)cc1` [S656], the “CDK12-DDB1 interaction in live cells (NanoLuc luminescence)” value at CDK12-DDB1 interaction was “efficiently induced an interaction between CDK12 and DDB1”. Moreover, the solubility (kinetic) at 24 h in data set [1] was determined as 23 µM (≈ 8.84 µg/mL). In data set [2], the “ATR mRNA” value was 0.3 and 0.2683 and 0.3666; the “BRCA2 mRNA” value was 0.127 and 0.1345 and 0.2247. Further, the IC50 in the data set with CD34+ cord blood cells (Homo sapiens, dose-response, read-out: IC50 on purified CD34+ cells from cord blood) stood at 1.31 µM. For the same molecule, the “activity against CD34+ cord blood cells” value in the data set on CD34+ cord blood cells (discovery screen, 1 μM, 6 days) is reported as “low activity”. In the data set with OCI-AML5 cells proteome, the “log2FC CCNK” value is -7.264, the “log2FC GNL1” value is reported as -6.619, the “log2FC PM34” value is recorded as -4.278 and the “log2FC PMYT1” value is -4.723. Moreover, in the data set on OCI-AML5 cells proteome, the “log2FC RIOK2” value is given as -4.751. Further, the “cyclin K protein level (immunoblot)” value in data set [3] (3 primary AML specimens, 5 μM, 5 hours) is “strong depletion of cyclin K”. The “Mcl-1 protein and c-MYC level (immunoblot)” value in data set [3] (OCI-AML5, 5 μM for 4 h) is recorded as “substantial depletion”. Further, the “RNA polymerase II phospho-ser2 level (immunoblot)” value in data set [3] is “reduced levels of RNA polymerase II phospho-ser2”. Further, the “cyclin K protein level (immunoblot)” value in data set [3] (setting [4]) is “dose-dependent cyclin K depletion”.
As for `Cc1cccc(Nc2nc(CC(=O)Nc3ncc(C)s3)cs2)n1` [HQ461], the “RNA polymerase II phospho-ser2 level (immunoblot)” value in data set [3] is “reduced levels of RNA polymerase II phospho-ser2”. In data set [3] (setting [4]), the “cyclin K protein level (immunoblot)” value is reported as “dose-dependent cyclin K depletion”.

For the origin of these results see paper PMC12152147, “DDB1 engagement defines the selectivity of S656 analogs for cyclin K degradation over CDK inhibition” (EMBO Reports, 2025).
